Where two headings read alike, the source gives them in different places. Starred links: 1 amine or outer side, 2 acyl side, 3 side chain; linkers in the order of their positions; H or OH if unused. Positions of bridges follow the written chain, without caps; N, C: chain ends. Non-standard residues stand in square brackets, D forms with d. Residues, ends and D or L forms follow the SMILES beside them. Chains are numbered I, II in the order given. No end group written: not given here. *: point of attachment. X3 = O=C(CCOCCOCCOCCOCCOCCOCCOCCOCCOCCOCCOCCOCCOCCOCCOCCOCCOCCOCCOCCOCCOCCOCCOCCOCCn1cc(CCC(=O)[*:2])nn1)[*:1]; TBMT = 2,4,6-tris(bromomethyl)-s-triazine, molecular scaffold, C(c1nc(C[*:2])nc(C[*:3])n1)[*:1]; X1 = O=C(CCOCCOCCOCCN(CCOCCOCCOCCn1cc(CCC(=O)[*:2])nn1)CCOCCOCCOCCn1cc(CCC(=O)[*:3])nn1)[*:1]; TATA = O=C(CC[*:1])N1CN(C(=O)CC[*:2])CN(C(=O)CC[*:3])C1; Hyp = O=C(O)[C@@H]1C[C@@H](O)CN1; hArg = N=C(N)NCCCC[C@H](N)C(=O)O; Cba = N[C@@H](CC1CCC1)C(=O)O; Pent4ynoyl = C#CCCC(=O)*
Legend:
[1] = NK cytotoxicity assay (NK:HT1080-luc co-culture, luciferase readout); format: cell-based, human; settings: NK:HT1080-luc co-culture, 24 hours, read-out: EC50 NK cytotoxicity (tumor cell killing)
Protocol: (§1) Heterotandem bicyclic peptide complexes were evaluated for NK functional readouts (cytotoxicity and cytokine secretion) in NK-tumor cell line co-cultures.
(§2) NK cells were isolated using a negative isolation kit (STEMCELL™ Technologies 17955) from the total PBMC population purified from whole blood. NK cell pellet was then resuspended in DMEM medium (Corning™ 10-013-CV) with 10% heat-inactivated fetal bovine serum (FBS; Corning® 35-011-CV), 10 mM HEPES (Gibco™ 15-630-080), and 1% Penicillin Streptomycin (Corning™ 30-002-CI), and 50 IU/mL human IL-2 (Miltenyi Biotec® 130-097-748), at a concentration of 4×10^5 cells/mL. For the NK cell cytotoxicity assays, 50 μL (2×10^4) of cell suspension was plated in the 96-well plate (Grenier® Bio One™ 655090) containing 50 μl (4×10^3) HT1080-luc cells (ATCC® CCL-121-luc2) in DMEM (Gibco™ 11875-093; with L-glutamine) with 10% heat-inactivated fetal bovine serum (FBS; Corning® 35-011-CV), 10 mM HEPES (Gibco™ 15-630-080), and 1% Penicillin Streptomycin (Corning™ 30-002-CI). […] The plates were then incubated for 24 hours at 37° C., 5% CO2. Post-incubation, plates was centrifuged at 250×g for 5 minutes and 100 μl supernatant discarded. Samples were then incubated 10 minutes with 50 μl Bright-Glo™ Luciferase Assay system (Promega™ E2620). Luminescence upon excitation at 570 nm was read using a CLARIOstar® plate-reader with MARS Data Analysis Software™. Data was fit to a four-parameter non-linear regression in GraphPad Prism™ 8.0.2 to generate an EC50 value.

HT1080-luc cells = assay: as above; format: cell-based, human; settings: for effect on tumor cell killing by NK cells, in words: in comparison to NK:HT1080-luc co-culture without heterotandem complex (NK-TICA)
Protocol: as §1, §2

NKp46 (human) = NKp46 (human) (UniProt O76036); assay: cell-based or functional assay
[2] = four-parameter logistic regression, FIGS. 2-4, 6-8, 10

Chain of NKp46 (human) (O76036 22-304): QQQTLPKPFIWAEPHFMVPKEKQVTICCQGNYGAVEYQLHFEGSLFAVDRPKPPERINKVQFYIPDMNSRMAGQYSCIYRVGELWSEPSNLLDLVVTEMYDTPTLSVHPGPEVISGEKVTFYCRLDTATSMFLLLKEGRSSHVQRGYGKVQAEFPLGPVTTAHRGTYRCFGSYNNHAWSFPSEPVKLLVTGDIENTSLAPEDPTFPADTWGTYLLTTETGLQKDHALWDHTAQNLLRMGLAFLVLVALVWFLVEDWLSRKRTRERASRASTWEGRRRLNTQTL

## CC[C@H](C)[C@@H]1NC(=O)CNC(=O)[C@H](Cc2c[nH]c3ccccc23)NC(=O)[C@H](CCC(N)=O)NC(=O)[C@@H]2CSCCC(=O)N3CN(CN(C3)C(=O)CCSC[C@@H](C(=O)N[C@@H](C)C(=O)N[C@@H](CCCCNC(=O)CCc3cn(CCOCCOCCOCCN(CCOCCOCCOCCC(=O)N[C@@H](C)C(=O)N[C@@H](CCCCNC(=N)N)C(=O)N[C@@H](CC(=O)O)C(=O)N[C@H]4CSCCC(=O)N5CN6CN(C5)C(=O)CCSC[C@H](NC(=O)[C@H](CC(C)C)NC(=O)[C@@H]5CCCN5C(=O)[C@H](CC(N)=O)NC(=O)[C@H](C(C)C)NC(=O)[C@H](CC(C)C)NC(=O)[C@@H]5C[C@@H](O)CN5C4=O)C(=O)N[C@@H](CC(C)C)C(=O)N[C@@H](Cc4c[nH]cn4)C(=O)N4CCC[C@H]4C(=O)N[C@H](CC(=O)O)C(=O)N[C@@H](Cc4c[nH]c5ccccc45)C(=O)N[C@@H](CCCCNC(=N)N)C(=O)N[C@H](C(N)=O)CSCCC6=O)CCOCCOCCOCCn4cc(CCC(=O)NCCCC[C@H](NC(=O)[C@H](C)NC(=O)[C@@H]5CSCCC(=O)N6CN7CN(C6)C(=O)CCSC[C@H](NC(=O)[C@H](CC(N)=O)NC(=O)[C@H](Cc6c[nH]cn6)NC(=O)[C@H]([C@@H](C)O)NC(=O)[C@H]([C@@H](C)O)NC(=O)[C@H](CC(C)C)NC(=O)[C@H](CC(=O)O)NC(=O)[C@@H](NC(=O)[C@H](C)N)CSCCC7=O)C(=O)N[C@@H](CCC(N)=O)C(=O)N[C@@H](Cc6c[nH]c7ccccc67)C(=O)NCC(=O)N[C@@H]([C@@H](C)CC)C(=O)N5)C(N)=O)nn4)nn3)C(N)=O)NC1=O)C(=O)CCSC[C@H](NC(=O)[C@H](C)N)C(=O)N[C@@H](CC(=O)O)C(=O)N[C@@H](CC(C)C)C(=O)N[C@@H]([C@@H](C)O)C(=O)N[C@@H]([C@@H](C)O)C(=O)N[C@@H](Cc1c[nH]cn1)C(=O)N[C@@H](CC(N)=O)C(=O)N2 [BCY15923]
[1]; [2]
  EC50: 0.044 nM
HT1080-luc cells
  effect on tumor cell killing by NK cells, in words: dose-dependent NK cell response to kill

## CC(=O)N[C@H]1CSCCC(=O)N2CN3CN(C2)C(=O)CCSC[C@H](NC(=O)[C@H](CC(C)C)NC(=O)[C@H](Cc2ccc(O)cc2)NC(=O)[C@H](CC(=O)O)NC(=O)[C@@H]2CCCN2C(=O)[C@H](CC2CCC2)NC(=O)[C@H](Cc2ccc(O)cc2)NC1=O)C(=O)N[C@H](C)C(=O)N[C@@H](CC(=O)O)C(=O)N[C@@H](CCC(=O)O)C(=O)N[C@@H](Cc1ccc(O)cc1)C(=O)N[C@H](C(=O)N[C@@H](CCCCNC(=O)CCc1cn(CCOCCOCCOCCN(CCOCCOCCOCCC(=O)N[C@@H](CC(C)C)C(=O)N2CCC[C@H]2C(=O)N2CCC[C@H]2C(=O)N[C@H]2CSCCC(=O)N4CN5CN(C4)C(=O)CCSC[C@H](NC(=O)[C@H](CCC(=O)O)NC(=O)[C@H](CCCCNC(=N)N)NC(=O)[C@H](C(C)C)NC2=O)C(=O)N[C@@H](C)C(=O)N[C@@H](CC(C)(C)C)C(=O)N[C@@H](CC(C)C)C(=O)N[C@@H](Cc2ccccc2)C(=O)N2CCC[C@H]2C(=O)N[C@@H](CCCCNC(=N)N)C(=O)N[C@@H]([C@@H](C)O)C(=O)N[C@H](C(N)=O)CSCCC5=O)CCOCCOCCOCCn2cc(CCC(=O)NCCCC[C@H](NC(=O)[C@@H]4CSCCC(=O)N5CN6CN(C5)C(=O)CCSC[C@H](NC(=O)[C@H](CC(C)C)NC(=O)[C@H](Cc5ccc(O)cc5)NC(=O)[C@H](CC(=O)O)NC(=O)[C@@H]5CCCN5C(=O)[C@H](CC5CCC5)NC(=O)[C@H](Cc5ccc(O)cc5)NC(=O)[C@@H](NC(C)=O)CSCCC6=O)C(=O)N[C@H](C)C(=O)N[C@@H](CC(=O)O)C(=O)N[C@@H](CCC(=O)O)C(=O)N[C@@H](Cc5ccc(O)cc5)C(=O)N4)C(N)=O)nn2)nn1)C(N)=O)CSCCC3=O [BCY18604]
[1]; [2]
  EC50: 0.0079 nM
HT1080-luc cells
  effect on tumor cell killing by NK cells, in words: enhanced NK cytotoxicity

## CC(=O)N[C@H]1CSCCC(=O)N2CN3CN(C2)C(=O)CCSC[C@H](NC(=O)[C@H](CC(C)C)NC(=O)[C@H](Cc2ccc(O)cc2)NC(=O)[C@H](CC(=O)O)NC(=O)[C@@H]2CCCN2C(=O)[C@H](CC2CCC2)NC(=O)[C@H](Cc2ccc(O)cc2)NC1=O)C(=O)N[C@H](C)C(=O)N[C@@H](CC(=O)O)C(=O)N[C@@H](CCC(=O)O)C(=O)N[C@@H](Cc1ccc(O)cc1)C(=O)N[C@H](C(=O)N[C@@H](CCCCNC(=O)CCc1cn(CCOCCOCCOCCOCCOCCOCCOCCOCCOCCOCCOCCOCCOCCOCCOCCOCCOCCOCCOCCOCCOCCOCCOCCOCCC(=O)N[C@@H](C)C(=O)N[C@@H](CCCCNC(=N)N)C(=O)N[C@@H](CC(=O)O)C(=O)N[C@H]2CSCCC(=O)N4CN5CN(C4)C(=O)CCSC[C@H](NC(=O)[C@H](CC(C)C)NC(=O)[C@@H]4CCCN4C(=O)[C@H](CC(N)=O)NC(=O)[C@H](C(C)C)NC(=O)[C@H](CC(C)C)NC(=O)[C@@H]4C[C@@H](O)CN4C2=O)C(=O)N[C@@H](CC(C)C)C(=O)N[C@@H](Cc2c[nH]cn2)C(=O)N2CCC[C@H]2C(=O)N[C@H](CC(=O)O)C(=O)N[C@@H](Cc2c[nH]c4ccccc24)C(=O)N[C@@H](CCCCNC(=N)N)C(=O)N[C@H](C(N)=O)CSCCC5=O)nn1)C(N)=O)CSCCC3=O [BCY18731] (I: A[hArg]DC[Hyp]LVNPLCLHP[dD]W[hArg]C-NH2 / II: Ac-CY[Cba]PDYLC[dA]DEYCK-NH2; linker I:4-I:11-I:18, II:1-II:8-II:13 via TATA; linker I:N-II:14 via X3; C-terminus assumed)
[1]; [2]
  EC50: 0.018 nM

## BCY17235: EphA2 peptide BCY9594 linked to NKp46 peptide (BCY17224) and CD16a peptide (BCY13883) via a TCA-[Peg23]3 linker (peptide 1 A[hArg]DC[Hyp]LVNPLCLHP[dD]W[hArg]C; peptide 2 Ac-CY[Cba]PDYLC[dA]DEYCK(Pent4ynoyl); peptide 3 ACRWSVEDPCGAWCAK(Pent4ynoyl); linker I:4-I:11-I:18, II:1-II:8-II:13 via TATA; linker III:2-III:10-III:14 via TBMT; also: chain 1 N-terminus and the K(PYA) of chains 2 and 3 joined through TCA-[Peg23]3 linker)
HT1080-luc cells; NK:HT1080-luc co-culture, 24 hours, four-parameter logistic regression, FIGS. 2-4, 6-8, 10, read-out: EC50 NK cytotoxicity (tumor cell killing)
  EC50: 0.014 nM
HT1080-luc cells
  effect on tumor cell killing by NK cells, in words: enhanced, dose-dependent effect on tumor cell killing

## I: A[hArg]DC[Hyp]LVNPLCLHP[dD]W[hArg]C-NH2 / II: ACNLQAPCMQTGKVCAK-NH2 / III: ACNLQAPCMQTGKVCAK-NH2 (linker I:4-I:11-I:18, II:2-II:8-II:15, III:2-III:8-III:15 via TATA; linker I:N-II:17-III:17 via X1; C-terminus assumed) [BCY15924]
[1]; FIG. 9
  EC50: 0.5 nM
HT1080-luc cells
  effect on tumor cell killing by NK cells, in words: enhanced NK cytotoxicity

## I: A[hArg]DC[Hyp]LVNPLCLHP[dD]W[hArg]C-NH2 / II: Ac-CY[Cba]PDYLC[dA]DEYCK-NH2 / III: Ac-CY[Cba]PDYLC[dA]DEYCK-NH2 (linker I:4-I:11-I:18, II:1-II:8-II:13, III:1-III:8-III:13 via TATA; linker I:N-II:14-III:14 via X1; C-terminus assumed) [BCY17226]
[1]; [2]
  EC50: 0.0061 nM
HT1080-luc cells
  effect on tumor cell killing by NK cells, in words: dose-dependent NK cell response to kill

## I: Ac-D[hArg]CSAGWLTMCQKLHLCPSH-NH2 / II: Ac-CY[Cba]PDYLC[dA]DEYCK-NH2 / III: Ac-CY[Cba]PDYLC[dA]DEYCK-NH2 (linker I:3-I:11-I:17, II:1-II:8-II:13, III:1-III:8-III:13 via TATA; linker I:13-II:14-III:14 via X1; C-terminus assumed) [BCY18603]
[1]; [2]
  EC50: 0.003 nM
HT1080-luc cells
  effect on tumor cell killing by NK cells, in words: enhanced NK cytotoxicity

B1: heterotandem bicyclic peptide complex BCY18731 (peptide)
peptide 1: A[hArg]DC[Hyp]LVNPLCLHP[dD]W[hArg]C
peptide 2: Ac-CY[Cba]PDYLC[dA]DEYCK(Pent4ynoyl)
modifications: linker I:4-I:11-I:18, II:1-II:8-II:13 via TATA; not fully specified (bridges); also: joined via azide-PEG24-acid linker (N-terminus of chain 1 to PYA of chain 2, triazole)
NKp46 (human)
  EC50, NK cytotoxicity assay (HT1080-luc luminescence): 18 pM

B2: heterotandem bicyclic peptide complex BCY21686 (peptide)
peptide 1: A[hArg]DC[Hyp]LVNPLCLHP[dD]W[hArg]C
peptide 2: Ac-CY[Cba]PDYLC[dA]DEYCK(Pent4ynoyl)
modifications: linker I:4-I:11-I:18, II:1-II:8-II:13 via TATA; not fully specified (bridges); also: EphA2:NKp46 1:3, three copies of chain 2 on the linker, linker also given with PEG3-acid, X5, X17: HyP or HArg
NKp46 (human)
  EC50, NK cytotoxicity assay (HT1080-luc luminescence): 1.3 pM
